Like-named read-outs stand apart in the source and are kept apart here.
Columns and labels:
[1] = Antioxidant assay, hydrogen peroxide-dependent oxidation (OxiSelect In vitro ROS/RNS Assay, DCFH-DiOxyQ); format: biochemical; conditions: for activity against ROS (in words): hydrogen peroxide-dependent oxidation; for Antioxidant activity, IC50, Hydrogen Peroxide: tested at 0.1-30 μmol/L, N = 3, n.d. = not detectable at the maximal concentration (30 μmol/L); for anti-ROS activity of glucuronide compared with its aglycone: serially-diluted concentrations
Procedure: Figure 4 Concentration dependency of flavonoid glucuronides and comparison with aglycones. Glucuronides and aglycones of flavonoid were assayed at serially-diluted concentrations to assess on hydrogen peroxide-dependent oxidation. Test samples were incubated with hydrogen peroxide for 5 min, followed by mixing with a probe of oxidant activity. After 15 min incubation, the hydrogen peroxide-dependent fluorescent intensity was measured. Data are shown as mean ± S.E. of triplicates. To assess ROS, OxiSelect In vitro ROS/RNS Assay kits ([…], Minneapolis, MN, USA) were used according to manufacturer’s instructions. Briefly, a test sample was incubated with 2.5 μmol/L of hydrogen peroxide for 5 min, and dichlorodihydrofluorescin DiOxyQ (DCFH-DiOxyQ) was added as a probe of oxidant activity. After 15 min incubation, the hydrogen peroxide-dependent fluorescent intensity was measured using a fluorescent plate reader (Infinite M200; Tecan, Wako Pure Chemical Industries). Percentage of inhibition of ROS was calculated using the following equation: [1 − (sample RFU^a − base RFU^b)/(control RFU^c − base RFU^b)] × 100 (1) where RFU is a relative fluorescent unit of reaction solution, a is RFU of DCFH-DiOxyQ with hydrogen peroxide and sample, b is RFU of DCFH-DiOxyQ alone, and c is RFU of DCFH-DiOxyQ with hydrogen peroxide.

[2] = Antioxidant assay, nitric oxide generated from NOR3 (Griess reagent); format: biochemical; conditions: for activity against nitric oxide (in words): nitric oxide reaction
Procedure: To quantify nitric oxide, a test sample was incubated at 37 °C for 150 min in PBS supplemented with 30 μmol/L of (±)-(E)-4-ethyl-2-[(E)-hydroxyimino]-5-nitro-3-hexenamide (NOR3). Nitric oxide generated naturally from NOR3, was measured using the Griess reagent (1% sulfanilamide, 0.1% N-(1-naphthyl) ethylenediamine dihydrochlride in 5% H3PO4). Briefly, 100 μL of the reacted solution was incubated for 5 min with 100 μL Griess reagent. Optical densities at 540 nm were then measured.

in vivo = assay: in vivo; design: species or system rat; conditions: for AUC(0-t) / Cmax / half-life / tmax: oral JHT 2 g/kg, non-compartmental; for concentration at 1 h / concentration at 24 h: rat, po, 2 g/kg; for concentration at 1 h: plasma; for concentration at 24 h: in vivo, 24 h after oral JHT 2 g/kg
Procedure: The higher dose than that in the pharmacological test was used to detect more constituents. […] In some experiments to deconjugate glucuronidated polyphenols, the samples were incubated with 75 mmol/L phosphate buffer containing 200 units/mL β-glucuronidase from Escherichia coli (Sigma-Aldrich) for 2 h at 37 °C.
For quantification of liquiritin, liquiritigenin, isoliquiritin, isoliquiritigeniin, hesperidin, hesperetin, castalagin, and all flavonoid glucuronides, 25–60 µL of standard solution and 25 µL of internal standard solution were added to 200–300 µL of plasma samples, followed by mixing well. Methanol (750–800 µL) was added to the solutions, followed by mixing and centrifugation (7000 g, 5 min). The supernatants were collected and dried at 40 °C under a stream of nitrogen gas. Then, the dried residue was dissolved in 50–100 μL of the HPLC mobile phase of each analytical method, and a 1–20 μL portion was injected into the LC-MS/MS systems. For quantification of genistein, luteolin, quercetin, (+)-catechin, (−)-epicatechin gallate, (±)-gallocatechin, Gallic acid, 4-O-methylgallic acid, hamamelitannin, 1,2,3,6-tetra-O-galloyl glucose, 1,2,3,4,6-penta-O-galloyl glucose, eugeniin, and 1-desgalloyl eugeniin, 200 μL of plasma samples were used. The amounts were measured using the same procedure, as described previously, except ethyl acetate (500 μL) and 2% acetic acid (100 μL), instead of methanol, were used concurrently as an extraction solution.
Plasma pharmacokinetic data were analyzed by non-compartmental modeling using Phoenix WinNonlin (version 6.3, Certara L.P., St. Louis, MO, USA) to determine various pharmacokinetic constants including the maximum concentration (Cmax), time to maximum concentration (tmax), apparent elimination half-life (t1/2), and area under the plasma concentration-time curve from time zero to the last observation (AUC0–last). The t1/2 was […] loge2/ke, where ke is the terminal elimination (at least three data points on the descending linear limb) rate constant.

[3] = rat plasma, 1 h after oral JHT 2 g/kg, read-out: plasma concentration before β-glucuronidase treatment
[4] = rat plasma after oral JHT 2 g/kg
[5] = rat plasma, 6 h after oral JHT 2 g/kg

| SMILES | AUC(0-t) (in vivo; rat plasma) | Cmax (in vivo; rat plasma) | half-life (in vivo; rat plasma) | tmax (in vivo; rat plasma) | Antioxidant activity, IC50, Hydrogen Peroxide [1] | further results |
| --- | --- | --- | --- | --- | --- | --- |
| COc1cc(C(=O)O)cc(O)c1O [3-O-methylgallic acid] | – | – | – | – | – | activity against ROS (in words) [1]: strong activity; activity against nitric oxide (in words) [2]: not nitric oxide |
| COc1c(O)cc(C(=O)O)cc1O [4-O-Methylgallic acid, 4-O-methylgallic acid] | 32.7 ng·h/mL | 6.65 ng/mL | 1.62 h | 2.00 H | not detectable even at the highest concentration | plasma concentration after β-glucuronidase treatment (in vivo; rat plasma, 1 h after oral JHT 2 g/kg): unchanged; concentration at 1 h (in vivo; [3]): 5.57 ng/mL; Antioxidant activity, IC50, Nitric Oxide ([2]; tested at 0.1-30 μmol/L, N = 3, n.d. = not detectable at the maximal concentration (30 μmol/L)): 3.59 µg/mL |
| COc1c2c(cc3oc(CO)cc(=O)c13)O[C@H](C(C)(C)O)C2 [Cimifugin, cimifugin, reference compound] | – | – | – | – | – | appearance / detection in plasma (in vivo; [4]): identified by major peaks; activity against ROS (in words) [1]: no activity; activity against nitric oxide (in words) [2]: no activity |
| O=C(O)c1cc(O)c(O)c(O)c1 [Gallic acid] | – | – | – | – | – | plasma concentration (not detected) (in vivo; [4]): < 10 ng/mL |
| O=C(O)C1OC(Oc2cc(O)c3c(=O)c(-c4ccc(O)cc4)coc3c2)C(O)C(O)C1O (stereo not shown) [Genistein 7-O-glucuronide, genistein 7-O-glucuronide] | 812 ng·h/mL | 53.4 ng/mL | – | 24.0 H | 0.638 µg/mL | plasma concentration (in vivo; rat plasma at 10 and 24 h after oral JHT): approximately 50 ng/mL; tmax (in vivo; rat plasma, listed as GEN-7G): 24 H; inhibition (anti-ROS activity) ([1]; at 134 ng/mL, statistically significant, Figure 4): 25%; anti-ROS activity of glucuronide compared with its aglycone ([1]; Figure 4): completely identical to that of their aglycones |
| CC1(C)[C@@H](O)CC[C@]2(C)[C@H]3C(=O)C=C4[C@@H]5C[C@@](C)(C(=O)O)CC[C@]5(C)CC[C@@]4(C)[C@]3(C)CC[C@@H]12 [Glycyrrhetic acid, glycyrrhetic acid, reference compound] | – | – | – | – | – | appearance / detection in plasma (in vivo; [4]): identified by major peaks; activity against ROS (in words) [1]: no activity; activity against nitric oxide (in words) [2]: no activity |
| COc1ccc(C2CC(=O)c3c(O)cc(OC4OC(C(=O)O)C(O)C(O)C4O)cc3O2)cc1O (stereo not shown) [Hesperetin 7-O-glucuronide, hesperetin 7-O-glucuronide] | 190 ng·h/mL | 34.2 ng/mL | 2.99 h | 4.00 H | 4.27 µg/mL | anti-ROS activity of glucuronide compared with its aglycone ([1]; Figure 4): partially decreased |
| O=C(C=Cc1ccc(O)cc1)c1ccc(O)cc1OC1OC(C(=O)O)C(O)C(O)C1O (stereo not shown) [Isoliquiritigenin 2′-O-glucuronide, isoliquiritigenin 2′-O-glucuronide] | 11.6 ng·h/mL | 3.19 ng/mL | – | 0.250 H | 0.704 µg/mL | – |
| O=C(C=Cc1ccc(OC2OC(C(=O)O)C(O)C(O)C2O)cc1)c1ccc(O)cc1O (stereo not shown) [Isoliquiritigenin 4-O-glucuronide, isoliquiritigenin 4-O-glucuronide] | 1.84 ng·h/mL | 0.388 ng/mL | 5.68 h | 0.250 H | – | – |
| O=C(C=Cc1ccc(O)cc1)c1ccc(OC2OC(C(=O)O)C(O)C(O)C2O)cc1O (stereo not shown) [Isoliquiritigenin 4′-O-glucuronide, isoliquiritigenin 4′-O-glucuronide] | 80.8 ng·h/mL | 15.8 ng/mL | 2.25 h | 0.250 H | 0.691 µg/mL | anti-ROS activity of glucuronide compared with its aglycone ([1]; Figure 4): completely identical to that of their aglycones |
| O=C(O)[C@H]1O[C@@H](Oc2cc(O)c3c(=O)cc(-c4ccc(O)c(O)c4)oc3c2)[C@H](O)[C@@H](O)[C@@H]1O [LTN-7G, luteolin 7-O-glucuronide] | – | – | – | – | – | appearance / detection in plasma (in vivo; [4]): did not appear in the plasma |
| O=C1CC(c2ccc(OC3OC(C(=O)O)C(O)C(O)C3O)cc2)Oc2cc(O)ccc21 (stereo not shown) [Liquiritigenin 4′-O-glucuronide, liquiritigenin 4′-O-glucuronide] | 522 ng·h/mL | 84.1 ng/mL | 2.27 h | 2.00 H | not detectable even at the highest concentration | activity against ROS (in words) [1]: no activity; anti-ROS activity of glucuronide compared with its aglycone ([1]; Figure 4): no activity |
| O=C1CC(c2ccc(O)cc2)Oc2cc(OC3OC(C(=O)O)C(O)C(O)C3O)ccc21 (stereo not shown) [Liquiritigenin 7-O-glucuronide, liquiritigenin 7-O-glucuronide] | 223 ng·h/mL | 35.6 ng/mL | 2.72 h | 2.00 H | 0.765 µg/mL | anti-ROS activity of glucuronide compared with its aglycone ([1]; Figure 4): completely identical to that of their aglycones |
| O=C1C[C@@H](c2ccc(O[C@@H]3O[C@H](CO)[C@@H](O)[C@H](O)[C@H]3O)cc2)Oc2cc(O)ccc21 [Liquiritin] | – | – | – | – | – | concentration at 1 h (in vivo; rat plasma, 1 h after oral JHT 2 g/kg, read-out: plasma concentration after β-glucuronidase treatment): 39.1 ng/mL; concentration at 1 h (in vivo; [3]): 2.4 ng/mL |
| O=C(O)[C@H]1O[C@@H](Oc2c(-c3ccc(O)c(O)c3)oc3cc(O)cc(O)c3c2=O)[C@H](O)[C@@H](O)[C@@H]1O [QCN-3G, quercetin 3-O-glucuronide] | – | – | – | – | – | appearance / detection in plasma (in vivo; [4]): did not appear in the plasma |
| O=c1c(-c2ccc(O)cc2)coc2cc(O)cc(O)c12 [genistein] | – | – | – | – | – | concentration at 24 h (in vivo; rat plasma, read-out: plasma concentration after β-glucuronidase treatment): 78.3 ng/mL; concentration at 24 h (in vivo; rat plasma, read-out: plasma concentration before β-glucuronidase treatment): 0.975 ng/mL |
| O=C1C[C@@H](c2ccc(O)cc2)Oc2cc(O)ccc21 [liquiritigenin] | – | – | – | – | – | plasma concentration after β-glucuronidase treatment (in vivo; [5]): 200 ng/mL; plasma concentration before β-glucuronidase treatment (in vivo; [5]): 0.873 ng/mL; activity against ROS (in words) [1]: strong activity |
